Measured values: patent US11008290B2, “Halogenated quinoline derivatives as antimicrobial agents” (University of Florida Research Foundation, Incorporated, priority 2015, dated 2021)
Values after ≈ are worked out from the molar mass of the structure shown. Like-named read-outs stand apart in the source and are kept apart here.

What was measured:
[1] = tested on: methicillin-resistant Staphylococcus aureus-2 (MRSA-2; clinical isolate); assay: Minimum inhibitory concentration (MIC) susceptibility assay, broth microdilution; type: cell-based; details: Staphylococcus, MRSA
Method: (§1) The minimum inhibitory concentration (MIC) for each compound was determined by the broth microdilution method as recommended by the Clinical and Laboratory Standards Institute (CLSI). In a 96-well plate, eleven two-fold serial dilutions of each compound were made in a final volume of 100 μL Luria Broth. Each well was inoculated with ˜10^5 bacterial cells at the initial time of incubation, prepared from a fresh log phase culture (OD600 of 0.5 to 1.0 depending on bacterial strain). […] The concentration range tested for each compound during this study was 0.10 to 100 μM. DMSO served as the vehicle and negative control in each microdilution MIC assay. DMSO was serially diluted with a top concentration of 1% v/v. Bacterial strains used: methicillin-resistant Staphylococcus aureus-2 (MRSA-2; clinical isolate from Shands Hospital in Gainesville, Fla.), methicillin-resistant Staphylococcus epidermidis (MRSE; ATCC 35984), vancomycin-resistant Enterococcus faecium (VRE, ATCC 700221).

[2] = tested on: methicillin-resistant Staphylococcus epidermidis (MRSE; ATCC 35984); assay: as above; type: cell-based; details: for MIC: Staphylococcus epidermidis, read-out: MRSE MIC
Method: as §1

[3] = tested on: vancomycin-resistant Enterococcus faecium (VRE, ATCC 700221); assay: as above; type: cell-based; details: read-out: VRE MIC
Method: as §1

[4] = tested on: MRSA-2; assay: Mechanistic investigations with metal(II)-cations (MIC assay with 200 μM metal salt); type: cell-based, Staphylococcus aureus; details: MRSA-2; for MIC: Staphylococcus aureus
Method: as §1

[5] = tested on: MRSA-2 planktonic cells and biofilms; assay: Calgary Biofilm Device (CBD) MBC/MBEC determination; type: cell-based, Staphylococcus aureus; details: for MBC: Staphylococcus aureus, MRSA, planktonic killing, CBD, first value of MBC/MBEC cell
Method: (§2) Biofilm eradication experiments were performed using the Calgary Biofilm Device to determine MBC/MBEC values for various compounds of interest (Innovotech, product code: 19111). The Calgary device (96-well plate with lid containing 96 total pegs to establish biofilms; 1 peg/well) was inoculated with 125 μL of a mid-log phase culture diluted 1,000-fold in tryptic soy broth with 0.5% glucose (TSBG) to establish bacterial biofilms after incubation at 37° C. for 24 hours. The lid of the Calgary device was then removed, washed and transferred to another 96-well plate containing 2-fold serial dilutions of the test compounds (the “challenge plate”). The total volume of media with compound in each well in the challenge plate was 150 μL. The Calgary device was then incubated at 37° C. for 24 hours. The lid was then removed from the challenge plate and MBC/MBEC values were determined using different final assays. […] The MBC values were determined as the concentration giving a lack of visible bacterial growth (e.g., turbidity). For determination of MBEC values, the Calgary device lid (with attached pegs/treated biofilms) was transferred to a new 96-well plate containing 150 μL of fresh TSBG media in each well and incubated for 24 hours at 37° C. to allow viable biofilms to grow and disperse resulting in turbidity after the incubation period. […] In select experiments, treated pegs from the Calgary device were removed from lead biofilm eradicators after final incubation, sonicated for 30 minutes in PBS and plated out to determine biofilm cell killing (e.g., colony forming unit per milliliter, CFU/mL).

[6] = tested on: MRSE (ATCC 35984) planktonic cells and biofilms; assay: as above; type: cell-based, Staphylococcus epidermidis; details: Staphylococcus epidermidis, planktonic killing, CBD, first value of cell
Method: as §2

[7] = tested on: VRE (ATCC 700221) planktonic cells and biofilms; assay: as above; type: cell-based, Enterococcus faecium; details: Enterococcus, planktonic killing, CBD, first value of cell
Method: as §2

[8] = tested on: human red blood cells; assay: Hemolysis assay; type: cell-based; details: human, 1 h, pH 7.2
Method: Freshly drawn human red blood cells (hRBC with ethylenediaminetetraacetic acid (EDTA) as an anticoagulant) were washed with Tris-buffered saline (0.01M Tris-base, 0.155M sodium chloride (NaCl), pH 7.2) and centrifuged for 5 minutes at 3500 rpm. The washing was repeated three times with the buffer. In 96-well plate, the test compounds were added to the buffer. […] The plate was then incubated for 1 hour at 37° C. After incubation, the plate is centrifuged for 5 minutes at 3500 rpm. Then 80 μL of the supernatant were transferred to another 96-well plate and the Optical Density (OD) was read at 405 nm. […] The percent of hemolysis was calculated as (OD405 of the compound-OD405 DMSO)/(OD405 Triton X-OD405 buffer).

[9] = change in antibacterial activity according to MIC values
[10] = 200 μM ammonium iron (II) sulfate hexahydrate, read-out: MIC w/Fe^2+
[11] = 200 μM copper (II) sulfate, read-out: MIC w/Cu^2+
[12] = 200 μM zinc (II) chloride, read-out: MIC w/Zn^2+
[13] = Table 3, at least three independent experiments, read-out: MRSA-2 MIC
[14] = Table 3, footnote c = lowest concentration tested, read-out: VRE MBC

MIC ([1]; read-out: MIC)	MIC [1, 13]	MIC ([2]; Table 3)	MIC ([3]; Table 3)	SMILES	MBC ([5]; Table 3, read-out: MRSA-2 MBC)	MBC ([6]; Table 3, read-out: MRSE MBC)	MBC [7, 14]	% Haemolysis at 200 μM [8]	further results
4.69 µM (≈ 2.28 µg/mL)				Oc1c(Br)cc(Br)c2ccc(CNc3ccc(Br)cc3)nc12 [HQ-6]					MIC ([1]; Table 2, 2 to 6 independent experiments, read-out: MRSA-2 MIC): 3.13 µM (≈ 1.52 µg/mL); fold more potent antibacterial activities than vancomycin ([2]; MRSE, MIC, same assays): 5 fold; MIC ([2]; 18 h, Table 2, ATCC 35984): 0.15 to 0.3 µM (≈ 0.073 to 0.146 µg/mL); MIC ([2]; Table 2, ATCC 35984): 0.15 µM (≈ 0.073 µg/mL); MIC ([3]; 18 h, Table 2, ATCC 700221): 0.39 to 0.78 µM (≈ 0.19 to 0.38 µg/mL); MIC ([3]; Table 2, ATCC 700221): 0.78 µM (≈ 0.38 µg/mL); Fold Δ (MIC w/Mg^2+) [4, 9]: insignificant changes in antibacterial activities; Fold Δ (MIC w/Zn^2+) [4, 9]: −6 fold; MIC [4, 10]: 9.38 µM; MIC [4, 11]: 1.13 µM; MIC ([4]; 200 μM magnesium (II) sulfate, read-out: MIC w/Mg^2+): 3.13 µM; MIC [4, 12]: 0.78 µM; MBEC:MBC ratio ([5]; MRSA-2, CBD): equipotent killing efficiencies; MBC ([5]; Table 2, read-out: MRSA-2 Clinical Isolate MBC): 125 µM (≈ 60.9 µg/mL); MBC ([6]; Table 2, read-out: MRSE ATCC 35984 MBC): 5.9 µM (≈ 2.87 µg/mL); MBC ([7]; Table 2, read-out: VRE ATCC 700221 MBC): 3.9 µM (≈ 1.9 µg/mL)
	4.69 µM (≈ 2.5 µg/mL)	0.78 µM (≈ 0.417 µg/mL)	4.69 µM (≈ 2.5 µg/mL)	Oc1c(Br)cc(Br)c2ccc(CNc3ccc(I)cc3)nc12 [RA-HQ-14]	250 µM (≈ 133 µg/mL)	46.9 µM (≈ 25 µg/mL)	46.9 µM (≈ 25 µg/mL)	11.0%	
	0.78 µM (≈ 0.345 µg/mL)	0.3 µM (≈ 0.133 µg/mL)	0.78 µM (≈ 0.345 µg/mL)	Oc1c(Br)cc(Br)c2ccc(CNc3ccc(Cl)cc3)nc12 [RA-HQ-13]	31.3 µM (≈ 13.9 µg/mL)	31.3 µM (≈ 13.9 µg/mL)	1.5 µM (≈ 0.664 µg/mL)	17.6%	
	1.56 µM (≈ 0.76 µg/mL)	0.2 µM (≈ 0.0974 µg/mL)	0.78 µM (≈ 0.38 µg/mL)	Oc1c(Br)cc(Br)c2ccc(CNc3cccc(Br)c3)nc12 [RA-HQ-15]	188 µM (≈ 91.6 µg/mL)	31.3 µM (≈ 15.2 µg/mL)	7.8 µM (≈ 3.8 µg/mL)	37.3%	
	25 µM (≈ 14.5 µg/mL)	12.5 µM (≈ 7.26 µg/mL)	25 µM (≈ 14.5 µg/mL)	Oc1c(I)cc(I)c2ccc(CNc3ccc(Br)cc3)nc12 [RA-HQ-23]	> 1000 µM	125 µM (≈ 72.6 µg/mL)	31.3 µM (≈ 18.2 µg/mL)	3.3%	
3.13 µM (≈ 1.26 µg/mL)	2.35 µM (≈ 0.945 µg/mL)	1.56 µM (≈ 0.627 µg/mL)	3.13 µM (≈ 1.26 µg/mL)	CCCCCNCc1ccc2c(Br)cc(Br)c(O)c2n1 [RA-HQ-2]	31.3 µM (≈ 12.6 µg/mL)	23.5 µM (≈ 9.45 µg/mL)	15.6 µM (≈ 6.27 µg/mL)	87.9%	
9.38 µM (≈ 4.56 µg/mL)	9.38 µM (≈ 4.56 µg/mL)	1.17 µM (≈ 0.569 µg/mL)	2.35 µM (≈ 1.14 µg/mL)	Oc1c(Br)cc(Br)c2ccc(CCc3ccc(Br)cc3)nc12 [A-HQ-7]	375 µM (≈ 182 µg/mL)	250 µM (≈ 122 µg/mL)	9.38 µM (≈ 4.56 µg/mL)	≤1%	Fold Δ (MIC w/Cu^2+) [4, 9]: +11 fold; Fold Δ (MIC w/Fe^2+) [4, 9]: +11 fold; Fold Δ (MIC w/Zn^2+) [4, 9]: −8 fold; MIC [4, 10]: > 100 µM; MIC [4, 11]: > 100 µM; MIC [4, 12]: 1.17 µM
	3.13 µM (≈ 1.77 µg/mL)	0.59 µM (≈ 0.334 µg/mL)	1.56 µM (≈ 0.883 µg/mL)	Oc1c(Br)cc(Br)c2ccc(CNc3cc(Br)ccc3Br)nc12 [RA-HQ-17]	750 µM (≈ 424 µg/mL)	188 µM (≈ 106 µg/mL)	31.3 µM (≈ 17.7 µg/mL)	7.4%	
